The values that follow are results of earlier work, collected in PMC7108400 (Leukemia research, 2019).

The subject of one data set is AML. The settings on record: azacitidine alone; cited from earlier work.
Another data set relates to de novo AML. The settings on record: cited from earlier work.

Take `Nc1ncn([C@@H]2O[C@H](CO)[C@@H](O)[C@H]2O)c(=O)n1` [azacitidine]: the “Grade ≥ 3 AEs” value in the data set with AML was 81%.
In the case of `O=C(CCCCCCC(=O)Nc1ccccc1)NO` [vorinostat], the Median overall survival with de novo AML (median follow-up of 82 weeks) was 82 weeks. Moreover, in the data set with de novo AML (with idarubicin and ara-C), the All-grade cardiac events is given as 15%, the Diarrhea is 72% and the Nausea is listed as 65%.
